Measurements: article PMC9144521 (Viruses, 2022)
Where a name gives a salt, the structure may show the parent alone.

What was measured:
AdV3 = assay: Anti-AdV activity assay (IFA of hexon), secondary screen, AdV3; type: cell-based, Human adenoviruses type 3; conditions: for Selective Index AdV3: CC50/EC50, Vero cells; for EC50: Vero cells, 48 h, IFA of hexon, 0.02 to 5 μM
AdV5 = assay: Anti-AdV activity assay (IFA of hexon), secondary screen, AdV5; type: cell-based, Human adenoviruses type 5; conditions: for Selective Index AdV5: CC50/EC50, Vero cells; for EC50: Vero cells, 48 h, IFA of hexon, 0.02 to 5 μM
in vitro = conditions: African green monkey

| Compound | Selective Index AdV3 (AdV3) | EC50 (AdV3) | Selective Index AdV5 (AdV5) | EC50 (AdV5) | CC50 at 48 h (in vitro) | CC50 at 48 h (in vitro; Vero cells) | CC50 (Vero cells) |
| --- | --- | --- | --- | --- | --- | --- | --- |
| CO[C@H]1/C=C\C=C(/C)C(=O)NC2=CC(=O)C(NCCN(C)C)=C(C[C@@H](C)C[C@H](OC)[C@H](O)[C@@H](C)/C=C(\C)[C@@H]1OC(N)=O)C2=O [17-DMAG] | >23.20 | 0.22 µM | >11.58 | 0.43 µM | > 5 µM | – | – |
| CC(C)c1cc(C(=O)N2Cc3ccc(CN4CCN(C)CC4)cc3C2)c(O)cc1O [AT13387] | >61.84 | 0.08 µM | >27.13 | 0.18 µM | – | > 5 µM | – |
| CCNC(=O)c1noc(-c2cc(C(C)C)c(O)cc2O)c1-c1ccc(CN2CCOCC2)cc1 [AUY922] | >28.56 | 0.18 µM | >22.11 | 0.23 µM | > 5 µM | – | – |
| CNC(=O)c1cccc(-c2ccc3c(N4CCOC[C@@H]4C)nc(N4CCOC[C@@H]4C)nc3n2)c1 [AZD2014] | 171.31 | 0.02 µM | 56.82 | 0.07 µM | 4.05 µM | – | – |
| COc1ccc(-c2ccc3c(N4CCOC[C@@H]4C)nc(N4CCOC[C@@H]4C)nc3n2)cc1CO [AZD8055] | >44.72 | 0.11 µM | >31.87 | 0.16 µM | > 5 µM | – | – |
| CNC(=O)CN1CCC(Oc2cc3c(Nc4cccc(Cl)c4F)ncnc3cc2OC)CC1 [AZD8931] | >96.15 | 0.05 µM | – | > 5 µM | > 5 µM | – | – |
| S=C(NCc1ccc2c(c1)OCO2)N1CCN(c2ncnc3c2oc2ccccc23)CC1 [Amuvatinib] | 2.10 | 3.97 µM | 4.64 | 1.8 µM | – | > 5 µM | – |
| N#CC1(c2ccc(NC(=O)c3cccnc3NCc3ccncc3)cc2)CCCC1 [Apatinib] | >15.41 | 0.32 µM | >1.39 | 3.6 µM | > 5 µM | – | – |
| COc1c(C)cnc(Cn2cnc3c(Cl)nc(N)nc32)c1C [BIIB021] | >48.73 | 0.1 µM | >21.2 | 0.24 µM | > 5 µM | – | – |
| CCCCOc1c(C(=O)c2c(F)cc(C)cc2F)c[nH]c2nncc1-2 [BMS-265246] | >7.84 | 0.64 µM | >8.35 | 0.6 µM | – | > 5 µM | – |
| CO[C@H]1CC[C@H](N2C(=O)CNc3ncc(-c4ccc(C(C)(C)O)nc4)nc32)CC1 [CC-223] | >4.50 | 1.11 µM | >3.62 | 1.38 µM | – | > 5 µM | – |
| NC(=O)CCCSc1nc(N)nc(-c2c(Cl)cc3c4c(cccc24)COC3)n1 [CH5138303] | – | 0.09 µM | – | 0.65 µM | – | – | – |
| COc1cc2ncnc(Nc3ccc(F)c(Cl)c3)c2cc1NC(=O)/C=C/CN1CCCCC1 [Dacomitinib] | 6.31 | 0.77 µM | 2.97 | 1.64 µM | – | 4.88 µM | – |
| C#Cc1cccc(Nc2ncnc3cc(OCCOC)c(OCCO)cc23)c1.Cl [DesMethyl Erlotinib] | >9.72 | 0.51 µM | – | > 5 µM | – | – | > 5 µM |
| Cc1ccc(-n2nc(C(C)(C)C)cc2NC(=O)Nc2ccc(OCCN3CCOCC3)c3ccccc23)cc1 [Doramapimod] | >14.24 | 0.35 µM | – | > 5 µM | > 5 µM | – | – |
| CCNC(=O)Nc1ccc(-c2nc3c(c(N4CCOC[C@@H]4C)n2)CCN(C2COC2)C3)cc1 [GDC-0349] | >3.63 | 1.38 µM | >1.91 | 2.62 µM | – | > 5 µM | – |
| Cc1c(CN2CCN(C(=O)[C@H](C)O)CC2)sc2c(N3CCOCC3)nc(-c3cnc(N)nc3)nc12 [GDC-0980] | 36.44 | 0.08 µM | 10.96 | 0.27 µM | 3 µM | – | – |
| COC1=C2C[C@@H](C)C[C@H](OC)[C@H](O)[C@@H](C)/C=C(\C)[C@H](OC(N)=O)[C@@H](OC)/C=C\C=C(/C)C(=O)NC(=CC1=O)C2=O [Geldanamycin] | >3.38 | 1.48 µM | – | > 5 µM | > 5 µM | – | – |
| Cn1c2ccccc2c2c3c(c4c5ccccc5n(CCC#N)c4c21)CNC3=O [Go6976] | 6.39 | 0.62 µM | 3.22 | 1.23 µM | – | 3.95 µM | – |
| CC(C)n1nc(-c2ccc3oc(N)nc3c2)c2c(N)ncnc21 [INK 128] | 161.78 | 0.01 µM | 61.27 | 0.01 µM | – | 0.85 µM | – |
| O=C(/C=C\n1cnc(-c2cc(C(F)(F)F)cc(C(F)(F)F)c2)n1)NNc1cnccn1 [KPT-330] | 15.45 | 0.1 µM | 3.04 | 0.52 µM | 1.58 µM | – | – |

| Compound | Selective Index AdV3 (AdV3) | EC50 (AdV3) | Selective Index AdV5 (AdV5) | EC50 (AdV5) | CC50 at 48 h (in vitro) | CC50 at 48 h (in vitro; Vero cells) | CC50 (Vero cells) |
| --- | --- | --- | --- | --- | --- | --- | --- |
| O=C(c1ccc(/C=C/c2n[nH]c3ccccc23)cc1)N1CCNCC1 [KW-2449] | >1.37 | 3.66 µM | >3.91 | 1.28 µM | > 5 µM | – | – |
| CO[C@@H](C)Cn1c(=O)n(C)c2cnc3ccc(-c4cncc(C(C)(C)O)c4)cc3c21 [LY3023414] | >5.58 | 0.9 µM | >3.83 | 1.31 µM | > 5 µM | – | – |
| COc1c(C)c2c(c(O)c1C/C=C(\C)CCC(=O)OCCN1CCOCC1)C(=O)OC2 [Mycophenolate Mofetil] | >2.72 | 1.84 µM | >25.83 | 0.19 µM | – | > 5 µM | – |
| CN1CCC(NC(=O)c2cc(-c3c(O)cc(O)cc3Oc3ccc([N+](=O)[O-])cc3)on2)CC1 [NMS-E973] | – | 0.92 µM | – | 4.94 µM | – | – | – |
| CN1CCN(c2ccc(Nc3ncc4cc(C#N)c(=O)n(C5CCCC5)c4n3)cc2)CC1 [ON123300] | >1.72 | 2.91 µM | >3.08 | 1.62 µM | – | > 5 µM | – |
| COc1cccc2cc(-c3nc([C@H]4CC[C@H](C(=O)O)CC4)n4ncnc(N)c34)[nH]c12 [OSI-027] | >3.62 | 1.38 µM | >2.08 | 2.4 µM | > 5 µM | – | – |
| Cc1nc(Nc2[nH]nc3c2CN(C(=O)N[C@H](CN(C)C)c2ccccc2)C3(C)C)c2sccc2n1 [PF-3758309] | >9.29 | 0.54 µM | >2.22 | 2.26 µM | – | > 5 µM | – |
| CC1(C)CC(=O)c2c(C(F)(F)F)nn(-c3ccc(C(N)=O)c(N[C@H]4CC[C@H](OC(=O)CN)CC4)c3)c2C1 [PF-04929113] | >26.61 | 0.19 µM | >12.46 | 0.4 µM | > 5 µM | – | – |
| CNC(=O)c1ccc(C)c(-n2c(C)cc(OCc3ccc(F)cc3F)c(Br)c2=O)c1 [PH-797804] | >250.00 | 0.02 µM | >3.16 | 1.58 µM | > 5 µM | – | – |
| CC(C)NCCCn1c(Sc2cc3c(cc2I)OCO3)nc2c(N)ncnc21 [PU-H71] | >6.79 | 0.74 µM | >2.27 | 2.2 µM | – | > 5 µM | – |
| COc1cc(Nc2ncc(F)c(Nc3ccc4c(n3)N(COP(=O)(O)O)C(=O)C(C)(C)O4)n2)cc(OC)c1OC [R788] | 6.65 | 0.23 µM | 1.48 | 1.06 µM | – | 1.56 µM | – |
| Cn1c(Nc2ccc(C(F)(F)F)cc2)nc2cc(Oc3ccnc(-c4ncc(C(F)(F)F)[nH]4)c3)ccc21 [RAF265] | >3.91 | 1.28 µM | – | > 5 µM | > 5 µM | – | – |
| CNC(=O)c1cc(Oc2ccc(NC(=O)Nc3ccc(Cl)c(C(F)(F)F)c3)c(F)c2)ccn1 [Regorafenib] | 9.30 | 0.44 µM | 2.72 | 1.5 µM | – | 4.06 µM | – |
| CC1(C)CC(=O)c2c(C(F)(F)F)nn(-c3ccc(C(N)=O)c(N[C@H]4CC[C@H](O)CC4)c3)c2C1 [SNX-2112] | >28.87 | 0.17 µM | >15.09 | 0.33 µM | – | > 5 µM | – |
| CC(C)c1cc(-c2n[nH]c(=O)n2-c2ccc3c(ccn3C)c2)c(O)cc1O [STA-9090] | 97.56 | 0.05 µM | 76.73 | 0.05 µM | – | 4.44 µM | – |
| O=C1c2ccc(Nc3ccc(F)cc3F)cc2CCc2ccc(OC[C@H](O)CO)cc21 [Skepinone-L] | 11.84 | 0.18 µM | 0.83 | 2.56 µM | 2.14 µM | – | – |
| CNC(=O)c1cc(Oc2ccc(NC(=O)Nc3ccc(Cl)c(C(F)(F)F)c3)cc2)ccn1 [Sorafenib Tosylate] | 4.67 | 1.27 µM | 1.53 | 3.87 µM | > 5 µM | – | – |
| Nc1ccc(-c2ccc3ncc4ccc(=O)n(-c5cccc(C(F)(F)F)c5)c4c3c2)cn1 [Torin 2] | – | 0.31 µM | – | 0.09 µM | – | – | – |
| COc1cccc(-c2ccc(NC(=O)C3=C(C(=O)O)CCC3)c(F)c2)c1 [Vidofludimus] | >3.07 | 1.63 µM | >5.35 | 0.94 µM | – | > 5 µM | – |
| CCn1c(=O)c(-c2cc[nH]n2)cc2c(C)nc(N)nc21 [Voxtalisib] | 4.83 | 0.47 µM | 0.83 | 2.72 µM | 2.26 µM | – | – |
| AZD4547 | 8.78 | – | – | – | – | – | – |
